Measurements: ChEMBL document CHEMBL1148236, “Synthesis and structure-activity relationship of 3-arylbenzoxazines as selective estrogen receptor beta agonists” (Bioorg Med Chem Lett, 2004)

What was measured:
Estrogen receptor beta [1] = target: T1, Estrogen receptor beta (Homo sapiens, UniProt Q92731)
Description: Ability to activate estrogen receptor 2-mediated transcription.

Estrogen receptor [2] = target: T2, Estrogen receptor (Homo sapiens, UniProt P03372)
T2 sequence (P03372 whole entry): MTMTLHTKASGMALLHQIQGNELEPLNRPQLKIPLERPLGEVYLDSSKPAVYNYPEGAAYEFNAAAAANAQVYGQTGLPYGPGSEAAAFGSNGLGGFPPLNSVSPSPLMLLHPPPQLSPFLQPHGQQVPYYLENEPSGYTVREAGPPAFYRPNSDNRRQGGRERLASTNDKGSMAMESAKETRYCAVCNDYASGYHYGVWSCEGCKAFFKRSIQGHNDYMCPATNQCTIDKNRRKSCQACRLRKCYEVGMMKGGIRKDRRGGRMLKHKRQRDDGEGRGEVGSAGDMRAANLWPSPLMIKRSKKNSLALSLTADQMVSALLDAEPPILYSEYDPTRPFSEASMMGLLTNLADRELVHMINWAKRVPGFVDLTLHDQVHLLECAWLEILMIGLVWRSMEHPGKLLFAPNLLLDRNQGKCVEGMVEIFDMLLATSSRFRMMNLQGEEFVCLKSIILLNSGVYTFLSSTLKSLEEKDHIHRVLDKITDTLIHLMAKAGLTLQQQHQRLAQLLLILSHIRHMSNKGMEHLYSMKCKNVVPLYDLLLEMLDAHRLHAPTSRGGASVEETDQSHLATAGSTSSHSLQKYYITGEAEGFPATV
Description: Ability to activate estrogen receptor 1-mediated transcription.

Estrogen receptor [3] = target: T2, Estrogen receptor; remark: listed apart in the source
Description: Binding affinity towards estrogen receptor alpha by [3H]17-beta-estradiol displacement.

Estrogen receptor beta [4] = target: T1, Estrogen receptor beta; remark: listed apart in the source
Description: Binding affinity towards estrogen receptor beta by [3H]17-beta-estradiol displacement.

T1 sequence (Q92731 whole entry): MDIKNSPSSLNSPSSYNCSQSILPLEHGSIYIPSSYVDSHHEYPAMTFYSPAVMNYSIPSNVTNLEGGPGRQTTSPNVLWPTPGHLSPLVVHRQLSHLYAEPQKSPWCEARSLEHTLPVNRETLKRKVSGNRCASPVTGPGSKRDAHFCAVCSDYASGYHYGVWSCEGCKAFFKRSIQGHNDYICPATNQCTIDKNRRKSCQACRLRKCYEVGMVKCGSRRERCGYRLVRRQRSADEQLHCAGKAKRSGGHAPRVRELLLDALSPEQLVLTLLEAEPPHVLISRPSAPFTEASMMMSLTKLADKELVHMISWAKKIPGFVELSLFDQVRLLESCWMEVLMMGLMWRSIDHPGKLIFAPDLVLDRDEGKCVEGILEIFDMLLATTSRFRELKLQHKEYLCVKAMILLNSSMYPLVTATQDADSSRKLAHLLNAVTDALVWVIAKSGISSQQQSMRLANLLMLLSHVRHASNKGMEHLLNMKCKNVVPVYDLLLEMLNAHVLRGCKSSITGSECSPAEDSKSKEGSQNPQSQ

Compound | EC50 (Estrogen receptor beta [1]) [nM] | EC50 (Estrogen receptor [2]) [nM] | IC50 (Estrogen receptor [3]) [nM] | IC50 (Estrogen receptor beta [4]) [nM]
CC1(C)Oc2cc(O)ccc2N=C1c1ccc(O)cc1 | 140 | 3100 | 8600 | 5600
CC1(C)Oc2cc(O)cc(O)c2N=C1c1ccc(O)c(Br)c1 | 120 | 1400 | 6000 | 1700
CC1Oc2cc(O)cc(O)c2N=C1c1ccc(O)cc1 (single isomer, unassigned) | 50 | 140 | 2800 | 240
Oc1ccc(C2=Nc3c(O)cc(O)cc3OC2)cc1 | 270 | 1800 | 33000 | 2800
CC1Oc2cc(O)cc(O)c2N=C1c1ccc(O)cc1 (single isomer, unassigned; enantiomer B) | 74 | 290 | 6300 | 1100
Cc1cc(O)cc2c1N=C(c1ccc(O)c(Br)c1)C(C)O2 (centres undefined) | 16 | 46 | 320 | 90
CCC1Oc2cc(O)cc(O)c2N=C1c1ccc(O)cc1 (centres undefined) | 26 | 170 | 1200 | 120
CCC1Oc2cc(O)cc(O)c2N=C1c1ccc(O)c(Br)c1 (centres undefined) | 180 | 2000 | 5300 | 1100
CCC1Oc2cc(O)cc(C)c2N=C1c1ccc(O)c(Br)c1 (centres undefined) | 8 | 170 | 180 | 90
Oc1ccc2c(c1)CC1Oc3cc(O)ccc3N=C21 (centres undefined) | 77 | 900 | 5600 | 1400

Now from value to compound:

EC50 (Estrogen receptor beta [1]) [nM] | EC50 (Estrogen receptor [2]) [nM] | IC50 (Estrogen receptor [3]) [nM] | IC50 (Estrogen receptor beta [4]) [nM] | Compound
160 | 6900 | 16000 | 2900 | Oc1ccc(C2=Nc3ccc(O)cc3OC2)cc1
18 | 1700 | 1700 | 320 | CCCC1Oc2cc(O)ccc2N=C1c1ccc(O)cc1 (centres undefined)
240 | 12000 | 6000 | 2600 | Oc1ccc2c(c1)CCC1Oc3cc(O)ccc3N=C21 (centres undefined)
7 | 59 | 850 | 200 | CCC1Oc2cc(O)ccc2N=C1c1ccc(O)cc1 (centres undefined)
47 | 150 | 2900 | 310 | CC1Oc2cc(O)cc(O)c2N=C1c1ccc(O)cc1 (stereo in doubt; 4i)
30 | 64 | 1700 | 330 | CC1Oc2cc(O)ccc2N=C1c1ccc(O)cc1 (centres undefined)
